Results: ChEMBL document CHEMBL1152698, “A novel class of allosteric modulators of AMPA/Kainate receptors” (Bioorg Med Chem Lett, 2009)

Experiments:
Rattus norvegicus = organism: Rattus norvegicus; assay: Potentiation of AMPA receptor mediated KA-induced current in Sprague-Dawley rat primary cerebellar granule neurons at 200 uM
[1] = Potentiation of AMPA receptor mediated KA-induced current in Sprague-Dawley rat primary cerebellar granule neurons
[2] = Extracellular drug level in Sprague-Dawley rat hippocampus at 100 mg/kg, po after 6 hrs; format: ADME, organism-based; design: dose 100 mg/kg, route oral; conditions: hippocampus extracellular fluid, read-out: Drug uptake
[3] = Extracellular drug level in Sprague-Dawley rat hippocampus at 100 mg/kg, po after 4 hrs; format: ADME, organism-based; design: dose 100 mg/kg, route oral; conditions: hippocampus extracellular fluid, read-out: Drug uptake

| Structure (SMILES) | Activity (Rattus norvegicus) | other results |
| --- | --- | --- |
| Nc1cc(Cl)c(Cl)cc1S(N)(=O)=O | 35% | – |
| CCNc1ccc(Cl)cc1S(N)(=O)=O | 91% | – |
| CCNS(=O)(=O)c1cc(Cl)ccc1N | 12% | – |
| CC(C)Nc1ccc(Cl)cc1S(N)(=O)=O | 32% | – |
| CNc1ccc(Cl)cc1S(N)(=O)=O | 69% | – |
| CCCNc1ccc(Cl)cc1S(N)(=O)=O | 80% | EC50 [1]: 134 µM |
| Nc1cc(Cl)c(S(N)(=O)=O)cc1S(N)(=O)=O | -6% | – |
| Nc1cc(Cl)ccc1S(N)(=O)=O | 8% | – |
| COc1ccc(S(N)(=O)=O)c(N)c1 | -5% | – |
| Nc1ccc(Cl)cc1S(N)(=O)=O | 23% | concentration at 6 h [2]: 8000 ng/mL; EC50 [1]: 284 µM; concentration at 4 h [3]: 12000 ng/mL |
| Cc1cccc(S(N)(=O)=O)c1N | 7% | – |
| CNS(=O)(=O)c1cc(Cl)ccc1N | 5% | – |
| CC1Nc2ccc(Cl)cc2S(=O)(=O)N1 (racemic) | 80% | – |
| CCCNS(=O)(=O)c1cc(Cl)ccc1N | 4% | – |
| Nc1ccccc1S(N)(=O)=O | -5% | – |
| Nc1ccc([N+](=O)[O-])cc1S(N)(=O)=O | -8% | – |
